From patent US10604512B2, “3-(1H-indol-2-yl)-1H-indazoles and therapeutic uses thereof” (Samumed, LLC, priority 2015, dated 2020)

Assays:
[1] = tested on: Wnt activity (Sp5-Luc reporter, TCF/LEF binding sites) in SW480 colon carcinoma cells; test: Screening assay for Wnt activity: Sp5-Luc reporter gene assay in stably transduced SW480 colon carcinoma cells; assay type: cell-based; conditions: Homo sapiens; for EC50: overnight incubation, 10-point curve from 10 μM; for inhibition at 10 µM: given where EC50 >10 μM, read-out: percent inhibition at 10 μM
Summary of the method: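 SW480 cells stably transduced with a luciferase reporter driven by an Sp5 promoter of eight TCF/LEF sites were plated at 4,000 cells/well in 1% FBS medium. They were exposed overnight at 37° C to a 10-point 1:3 dilution series from 10 μM (0.1% DMSO). Luminescence was normalized to DMSO for four-parameter EC50, or percent inhibition at 10 μM.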

[2] = tested on: primary human mesenchymal stem cells (hMSCs); test: Induction of chondrogenesis in primary human mesenchymal stem cells (nodule imaging, Rhodamine B / Nile Red); assay type: cell-based; conditions: for EC50: concentration required to induce 50% levels of chondrogenesis vs TGF-β3 positive control, read-out: Conc (nM) of 50% TGF-β3 activity; for Emax: maximum chondrogenesis activity relative to TGF-β3 (10 ng/mL) positive control, read-out: Max. Activity as % TGF-β3 activity
Method: Representative compounds were screened using primary human mesenchymal stem cells (hMSCs) to determine their ability to induce chondrogenesis (process by which cartilage is developed).
Primary human mesenchymal stem cells (hMSCs) were purchased from Lonza (Walkersville, Md.) and expanded in Mesenchymal Stem Cell Growth Media (Lonza). Cells between passage 3 and 6 were used for the experiments.
Each compound was dissolved in DMSO as a 10 mM stock and used to prepare compound source plates. For the 96 well assay, serial dilution (1:3, 6-point dose-response curves from 2700 nM to 10 nM) and compound transfer was performed using the ECHO 550 (Labcyte, Sunnyvale, Calif.) into 96-well clear bottom assay plates (Greiner Bio-One) with appropriate DMSO backfill for a final DMSO concentration of 0.03%. hMSCs were plated at 20,000 cells/well in 250 μL/well Incomplete Chondrogenic Induction Medium (Lonza; DMEM, dexamethasone, ascorbate, insulin-transferrin-selenium [ITS supplement], gentamycin-amphotericin [GA-1000], sodium pyruvate, proline and L-glutamine). TGF-β3 (10 ng/mL) was used as a positive control for differentiation while negative control wells were treated with 75 nL DMSO for normalization and calculating EC50 values. For the 384 well assay, serial dilution (1:3, 8-point dose-response curves from 5000 nM to 2.2 nM) and compound transfer was performed using the ECHO 550 (Labcyte, Sunnyvale, Calif.) into 384-well clear bottom assay plates (Greiner Bio-One) with appropriate DMSO backfill for a final DMSO concentration of 0.03%. hMSCs were plated at 8,000 cells/well in 80 μL/well Incomplete Chondrogenic Induction Medium (Lonza; DMEM, dexamethasone, ascorbate, insulin-transferrin-selenium [ITS supplement], gentamycin-amphotericin [GA-1000], sodium pyruvate, proline and L-glutamine). TGF-β3 (10 ng/mL) was used as a positive control for differentiation while negative control wells were treated with 25 nL DMSO for normalization and calculating EC50 values. Cells were incubated at 37° C. and 5% CO2 for 6 days. To image chondrogenic nodules, the cells were fixed using 4% formaldehyde (Electron Microscopy Sciences), and stained with 2 μg/mL Rhodamine B (Sigma-Aldrich) and 20 μM Nile Red (Sigma-Aldrich) [Johnson K., et. al, A Stem CellBased Approach to Cartilage Repair, Science, (2012), 336(6082), 717-721]. The nodules imaged (25 images per well for 96 well plates and 9 images per well for 384 well plates at 10× magnification) by excitation at 531 nm and emission at 625 nm and quantified using the CellInsight CX5 (Thermo Scientific). Area of nodules in each well was normalized to the average of 3 DMSO treated wells on the same plate using Excel (Microsoft Inc.). The normalized averages (fold change over DMSO) of 2 or 3 replicate wells for each compound concentration were calculated. Due to solubility limitations of some of the compounds, curve fitting was incomplete leading to inaccurate EC50 determinations.
Using TGF-β3 as a positive control, the concentration of representative compounds required to induce 50% levels of chondrogenesis is reported. In addition, the maximum activity of each compound and the respective dose that each compound reached maximum chondrogenesis activity is reported.

Compound | EC50 [1] [nM] | also measured
Fc1ccc(-c2cccc3[nH]c(-c4n[nH]c5ccc(-c6cncc(CN7CCCC7)c6)cc45)cc23)cc1 [Compound 42, 3-(4-(4-Fluorophenyl)-1H-indol-2-yl)-5-(5-(pyrrolidin-1-ylmethyl)pyridin-3-yl)-1H-indazole] | 845 | EC50 [2]: 30 nM; Emax [2]: 197%
Nc1cncc(-c2ccc3[nH]nc(-c4cc5c(-c6ccccc6F)cccc5[nH]4)c3c2)c1 [Compound 59, 5-(3-(4-(2-Fluorophenyl)-1H-indol-2-yl)-1H-indazol-5-yl)pyridin-3-amine] | 53 | EC50 [2]: 10 nM; Emax [2]: 197%
CCCCC(=O)Nc1cncc(-c2ccc3[nH]nc(-c4cc5c(-c6ccccn6)cccc5[nH]4)c3c2)c1 [Compound 159, N-(5-(3-(4-(Pyridin-2-yl)-1H-indol-2-yl)-1H-indazol-5-yl)pyridin-3-yl) pentanamide] | 1670 | –
CCC(=O)Nc1cncc(-c2ccc3[nH]nc(-c4cc5ccccc5[nH]4)c3c2)c1 [Compound 253, N-(5-(3-(1H-Indol-2-yl)-1H-indazol-5-yl)pyridin-3-yl)propionamide] | 160 | –
O=C(Cc1ccccc1)Nc1cncc(-c2ccc3[nH]nc(-c4cc5ccccc5[nH]4)c3c2)c1 [Compound 262, N-(5-(3-(1H-Indol-2-yl)-1H-indazol-5-yl)pyridin-3-yl)-2-phenylacetamide] | 1560 | –
O=C(Nc1cncc(-c2ccc3[nH]nc(-c4cc5ccccc5[nH]4)c3c2)c1)c1ccccc1 [Compound 263, N-(5-(3-(1H-Indol-2-yl)-1H-indazol-5-yl)pyridin-3-yl)benzamide] | 380 | –
c1ccc2[nH]c(-c3n[nH]c4ccc(-c5cncc(CN6CCCCC6)c5)cc34)cc2c1 [Compound 267, 3-(1H-Indol-2-yl)-5-(5-(piperidin-1-ylmethyl)pyridin-3-yl)-1H-indazole] | 675 | –
CC(C)(C)CC(=O)Nc1cncc(-c2ccc3[nH]nc(-c4cc5ccccc5[nH]4)c3c2)c1 [Compound 268, N-(5-(3-(1H-Indol-2-yl)-1H-indazol-5-yl)pyridin-3-yl)-3,3-dimethylbutanamide] | 185 | –
O=C(Nc1cncc(-c2ccc3[nH]nc(-c4cc5ccccc5[nH]4)c3c2)c1)C1CCC1 [Compound 273, N-(5-(3-(1H-Indol-2-yl)-1H-indazol-5-yl)pyridin-3-yl) cyclobutanecarboxamide] | 685 | –
O=C(Nc1cncc(-c2ccc3[nH]nc(-c4cc5ccccc5[nH]4)c3c2)c1)C1CCCCC1 [Compound 275, N-(5-(3-(1H-Indol-2-yl)-1H-indazol-5-yl)pyridin-3-yl) cyclohexanecarboxamide] | 588 | –
CC(C)CC(=O)Nc1cncc(-c2ccc3[nH]nc(-c4cc5c(-c6ccsc6)cccc5[nH]4)c3c2)c1 [Compound 282, 3-Methyl-N-(5-(3-(4-(thiophen-3-yl)-1H-indol-2-yl)-1H-indazol-5-yl)pyridin-3-yl)butanamide] | 75 | –
CC(C)C(=O)Nc1cncc(-c2ccc3[nH]nc(-c4cc5c(-c6ccsc6)cccc5[nH]4)c3c2)c1 [Compound 289, N-(5-(3-(4-(Thiophen-3-yl)-1H-indol-2-yl)-1H-indazol-5-yl)pyridin-3-yl) isobutyramide] | 120 | –
c1ccc(-c2ccc3[nH]nc(-c4cc5c(-c6ccoc6)cccc5[nH]4)c3c2)nc1 [Compound 336, 3-(4-(Furan-3-yl)-1H-indol-2-yl)-5-(pyridin-2-yl)-1H-indazole] | 3910 | –
c1cncc(-c2ccc3[nH]nc(-c4cc5c(-c6cccs6)cccc5[nH]4)c3c2)c1 [Compound 340, 5-(Pyridin-3-yl)-3-(4-(thiophen-2-yl)-1H-indol-2-yl)-1H-indazole] | 74 | –
c1csc(-c2cccc3[nH]c(-c4n[nH]c5ccc(-c6ccncc6)cc45)cc23)c1 [Compound 354, 5-(pyridin-4-yl)-3-(4-(thiophen-2-yl)-1H-indol-2-yl)-1H-indazole] | 4940 | –
CC(C)(C)C(=O)Nc1cncc(-c2ccc3[nH]nc(-c4cc5c(-c6cc(F)cc(CNS(C)(=O)=O)c6)cccc5[nH]4)c3c2)c1 [Compound 484, N-(5-(3-(4-(3-Fluoro-5-(methylsulfonamidomethyl)phenyl)-1H-indol-2-yl)-1H-indazol-5-yl)pyridin-3-yl)pivalamide] | 115 | –
CS(=O)(=O)NCc1cc(F)cc(-c2cccc3[nH]c(-c4n[nH]c5ccc(-c6ccncc6)cc45)cc23)c1 [Compound 494, N-(3-Fluoro-5-(2-(5-(pyridin-4-yl)-1H-indazol-3-yl)-1H-indol-4-yl)benzyl) methane sulfonamide] | 3900 | –
CC(C)CC(=O)Nc1cncc(-c2ccc3[nH]nc(-c4cc5ncccc5[nH]4)c3c2)c1 [Compound 506, N-(5-(3-(1H-Pyrrolo[3,2-b]pyridin-2-yl)-1H-indazol-5-yl)pyridin-3-yl)-3-methylbutanamide] | 86 | –
O=C(Nc1cncc(-c2ccc3[nH]nc(-c4cc5ncccc5[nH]4)c3c2)c1)c1ccccc1 [Compound 515, N-(5-(3-(1H-Pyrrolo[3,2-b]pyridin-2-yl)-1H-indazol-5-yl)pyridin-3-yl) benzamide] | 908 | –
c1cnc2cc(-c3n[nH]c4ccc(-c5cncc(CN6CCCCC6)c5)cc34)[nH]c2c1 [Compound 519, 5-(5-(Piperidin-1-ylmethyl)pyridin-3-yl)-3-(1H-pyrrolo[3,2-b]pyridin-2-yl)-1H-indazole] | 165 | –
O=C(Nc1cncc(-c2ccc3[nH]nc(-c4cc5ncccc5[nH]4)c3c2)c1)C1CCC1 [Compound 525, N-(5-(3-(1H-Pyrrolo[3,2-b]pyridin-2-yl)-1H-indazol-5-yl)pyridin-3-yl) cyclobutanecarboxamide] | 109 | –
Fc1cccc(-c2cccc3[nH]c(-c4n[nH]c5ccc(C6CCNCC6)cc45)cc23)c1 [Compound 533, 3-(4-(3-Fluorophenyl)-1H-indol-2-yl)-5-(piperidin-4-yl)-1H-indazole] | 3830 | –
Fc1ccc(-c2cccc3[nH]c(-c4n[nH]c5ccc(C6=CCNCC6)cc45)cc23)cc1 [Compound 550, 3-(4-(4-Fluorophenyl)-1H-indol-2-yl)-5-(1,2,3,6-tetrahydropyridin-4-yl)-1H-indazole] | > 10000 | inhibition at 10 µM [1]: 48%
Cc1ncc(-c2ccc3[nH]nc(-c4cc5c(-c6ccncc6)cccc5[nH]4)c3c2)n1C [Compound 601, 5-(1,2-Dimethyl-1H-imidazol-5-yl)-3-(4-(pyridin-4-yl)-1H-indol-2-yl)-1H-indazole] | > 10000 | inhibition at 10 µM [1]: 32.4%
c1cc(N2CCCCC2)c2cc(-c3n[nH]c4ccc(-c5cncc(OC6CCCCC6)c5)cc34)[nH]c2c1 [Compound 635, 5-(5-(Cyclohexyloxy)pyridin-3-yl)-3-(4-(piperidin-1-yl)-1H-indol-2-yl)-1H-indazole] | 2930 | –
CN1CCN(c2cccc3[nH]c(-c4n[nH]c5ccc(-c6cncc(NC(=O)CC7CCNCC7)c6)cc45)cc23)CC1 [Compound 669, N-(5-(3-(4-(4-Methylpiperazin-1-yl)-1H-indol-2-yl)-1H-indazol-5-yl)pyridin-3-yl)-2-(piperidin-4-yl)acetamide] | > 10000 | inhibition at 10 µM [1]: 11.7%
c1cc(-c2ccoc2)c2cc(-c3n[nH]c4ccc(-c5cncc(OC6CCNCC6)c5)cc34)[nH]c2c1 [Compound 716, 3-(4-(Furan-3-yl)-1H-indol-2-yl)-5-(5-(piperidin-4-yloxy)pyridin-3-yl)-1H-indazole] | 628 | –
